Measurements taken from US20080171788A1, “Medicament For Irritable Bowel Syndrome” (priority 2005, published 2008).
“Also recorded” adds a separate entry of the source.

Key:
male Wister rats = assay: Rat restraint stress-induced defecation model; type: in vivo; details: for evacuation suppressing action: 10 mg/kg p.o., used independently, 10 mg/kg; for number of excreted stools, comparison with the non-administration group: each of the 1, 3 and 10 mg/kg administration groups, N=10
Experimental: IBS-treating effect of the medicine of the invention was evaluated using a test method in which the amount of evacuations is measured by applying a restriction stress to rats (cf. J. Pharmacol. Exp. Ther. (1992) 261, 297-303). […] Each drug to be tested was administered to male Wister rats (body weight 250 to 320 g, 10 animals for each group), and a restraint stress was loaded 30 minutes thereafter. A restraint stress cage (KN-468, 265 mm in width×95 mm in length×200 mm in height, mfd. by Natsume Seisakusho, Tokyo) was used for the restraint stress loading, and the number of excreted stool was counted 1 hour after the stress loading. […] The control means the number of stools at the time of no stress loading, namely the reference value.

α1 receptor = assay: Affinity for other receptors: α1; type: binding
5-HT2B receptor = 5-HT2B receptor (Homo sapiens, UniProt P41595); details: in comparison with 5-HT1A, 5-HT1B, 5-HT2A, 5-HT2C, 5-HT3, 5-HT6, 5-HT7, α1, M1 and D2 receptors; cited from earlier work
Chain of 5-HT2B receptor (P41595 whole entry): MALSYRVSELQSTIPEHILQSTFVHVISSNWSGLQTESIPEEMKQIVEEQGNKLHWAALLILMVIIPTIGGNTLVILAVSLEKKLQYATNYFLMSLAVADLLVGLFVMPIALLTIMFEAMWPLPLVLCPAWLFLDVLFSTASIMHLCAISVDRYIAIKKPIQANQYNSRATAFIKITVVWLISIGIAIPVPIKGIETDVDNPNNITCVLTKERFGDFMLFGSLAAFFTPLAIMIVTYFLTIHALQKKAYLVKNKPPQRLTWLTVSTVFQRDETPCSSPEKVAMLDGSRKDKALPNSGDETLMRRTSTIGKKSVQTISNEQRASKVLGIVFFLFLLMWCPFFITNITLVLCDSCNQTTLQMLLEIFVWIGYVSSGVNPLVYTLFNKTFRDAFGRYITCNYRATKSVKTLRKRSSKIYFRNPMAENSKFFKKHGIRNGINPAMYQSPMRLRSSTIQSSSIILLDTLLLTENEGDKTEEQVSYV

Row | SMILES | evacuation suppressing action (male Wister rats) | number of excreted stools, comparison with the non-administration group (male Wister rats) | also measured
1 | Cl.NC(N)=NC(=O)c1ccc2c(c1)C1(CCCO1)c1ccccc1-2 (single isomer, unassigned) [Production Example 60b] | – | – | evacuation suppression action (male Wister rats; 3 mg/kg (p.o.)): suppression action similar to the level of Production Example 3
2 | Cl.NC(N)=NC(=O)c1ccc2c(c1)C(O)c1ccccc1-2 (centres unmarked) [Production Example 3, N-(diaminomethylene)-9-hydroxy-9H-fluorene-2-carboxamide hydrochloride] | – | – | IC50 (α1 receptor): ≥ 1 µM; evacuation suppression action (male Wister rats; 3 mg/kg intraperitoneally (i.p.)): significant suppression action
3 | CC1CCN(CC[C@H]2CCCN2S(=O)(=O)c2cccc(O)c2)CC1 [SB-269970, (R)-3-(2-(2-(4-methylpiperidine-1-yl)ethyl)pyrrolidine-1-sulfonyl)phenol] | did not show the evacuation suppressing action; also recorded: do not show the reaction | Significant difference was not found | –
4 | CC(C)c1cc(-c2ccc(F)c3ccccc23)nc(N)n1 [RS-127445, 2-amino-4-(4-fluoronaphtho-1-yl)-6-isopropylpyrimidine] | did not show the evacuation suppressing action; also recorded: do not show the reaction | Significant difference was not found | selectivity for 5-HT2B receptor (5-HT2B receptor): ≥ 1,000 times
